Entries after “also recorded” stand apart in the source; their conditions may differ.
Key:
[1] = system: γH2AX foci per nucleus in mouse submandibular gland; experiment: In vivo radioprotection of mouse salivary gland: γH2AX foci per nucleus (IHC) 48 hours after 15 Gy, retroductal injection
Method: Female SKH1 hairless mice, backcrossed 6 generations with C57BL/6J mice, aged 6-12 weeks were used in this study for in vitro assay development and drug discovery. Female C57BL/6J mice age 6-8 weeks were used for in vivo validation studies. […] Animals were maintained on a 12 hr light/dark cycle and group-housed with food and water available ad libitum.
Briefly, 6-10 week old female C57Bl/6 J mice were anesthetized by intraperitoneal injection of sterile saline solution of 100 mg/kg ketamine and 10 mg/kg xylazine. Maxillary incisors were secured over a metal beam, while an elastic band provided tension from behind the mandibular incisors. The mouth was widened using a custom steel retractor to apply pressure to the buccal mucosa and the tongue was retracted and cotton placed in the oral cavity. The wire inset of a 32 G intracranial catheter was cut at […] to create a bevel. The beveled wire created a shallow puncture in the left salivary papilla. A beveled catheter section containing the wire insert for support was gently inserted into the puncture site. The catheter was removed, and 1 mg/kg atropine was administered by intraperitoneal injection. After 10 min, the needle of a Hamilton syringe, loaded with vehicle or drug solution, was inserted into the catheter, and the catheter was inserted into the orifice produced in the papilla. Drug solutions were injected by hand at 10 μl/min at a volume of 1 μl/g of body weight. Following injection, the pressure was maintained on the syringe for 1 min to ensure material retention before removal of the catheter.
The head and neck region was positioned over the slit of a custom collimator, which allowed body shielding.
Submandibular glands and SGm were isolated and fixed in 4% paraformaldehyde overnight at 4 °C. Tissues were paraffin-embedded and then cut into […] sections. […] Permeabilization was performed with 0.5% Triton X-100 in PBS for 5 minutes. […] Following a PBS rinse, […] DAPI (Invitrogen, Carlsbad, CA) in PBS was applied to sections for 5 minutes. Sections were washed thrice in PBS for 5 minutes and the slides were mounted using Immu-Mount mounting medium (Thermo). Microscopic images were acquired using a Leica TCS SP5 confocal microscope with a 100× oil immersion objective and Argon laser. Analysis of images was performed in ImageJ.

[2] = system: senescence-associated β-galactosidase in salivary gland cell clusters (SGm); experiment: Cellular senescence assay (SPiDER-βGal) in salivary gland tissue chip, 5 days post-radiation (15 Gy); also second screen of library hits at 100 μM; format: cell-based, mouse; conditions: for double hit in the drug screen: glutathione and senescence assays, 100 μM, statistically similar to 0 Gy; for Estimated EC50, Senescence: nonlinear fit in Prism of dose response curves; for Estimated EC50, Senescence / radioprotection in dose response, senescence assay / protection against radiation-induced senescence: 15 Gy; for protection against radiation-induced senescence: 5 days post-radiation; as to Senescence (radioprotection): key: +: radioprotection; ~: partial radioprotection; —: no radioprotection
Excerpt: The chip platform consists of an array of near-spherical microbubble (MB) cavities formed in poly(dimethylsiloxane) (PDMS). Each chip, containing ~50 MBs, affixed within wells of a 96-well plate (FIG. 1C). Primary salivary gland cell clusters (FIG. 1A), suspended in a poly(ethylene glycol) (PEG) hydrogel precursor and MMP-degradable peptide crosslinker solution together with the photoinitiator LAP, were applied to the chip allowing the clusters to deposit into the MBs (FIG. 1D). In situ polymerization of the hydrogel was achieved using long-wave, low intensity UV light. Over time, the cell clusters aggregate and proliferate to form SGm (FIG. 1C).
For senescence, a protocol similar to the glutathione assay was followed to determine the optimal time point post-radiation for detecting a change in senescence between 0 Gy and 15 Gy, as measured by senescence-associated β-galactosidase activity.
The glutathione and senescence assays were used to screen a library of FDA-approved drugs (Selleck Chemicals) at 100 μM. Drugs were first screened using the glutathione assay according to the timeline depicted in FIG. 2A. […] Hits with the glutathione assay were then tested with the senescence assay and considered a “double hit” if senescence levels were statistically similar to levels at 0 Gy (FIG. 4, black circles).
Mice were euthanized and the submandibular glands (SMG) were removed and chopped with a razor blade for 5 min. […] Cells were centrifuged, then resuspended in HBSS with 15 mM HEPES and passed through 100 μm and 20 μm mesh filters to isolate clusters between 20-100 μm. […] The isolated clusters were combined with hydrogel precursor solution and seeded in MB array-based chips as described below.
The cell/gel precursor solution (25 μL for 48 well; 20 μL for 96 well) was pipetted onto the MB chips and incubated for 30 min, pipetting every 10 min to redisperse cells that had settled onto the surface of the chip.
A cellular senescence assay for the chips was developed by adapting the Cellular Senescence Detection Kit—SPiDER-βGal (Dojindo Molecular Technologies, Inc. SG04). Bafilomycin A1 and SPiDER-βGal stock solutions were prepared in DMSO per manufacturer directions. The assay was performed by first incubating the chips with bafilomycin A1 (1:1000 dilution in media) for 1 hr at 37 °C. […] Chips were washed twice with media and imaged using a fluorescence microscope with a Texas Red filter (Excitation: 580 nm; Emission: 604 nm).
For radioprotection experiments, SGm were cultured in MB-hydrogel chips for 4 days, then drugs were added to the chips 30 min prior to irradiation and washed out with media 30 min post-radiation treatment. […] The glutathione and senescence assays were performed at 4- and 5-days post-radiation. For assay validation experiments, at least 3 chips (N=3) were used for each drug, corresponding to >100 MBs (n>100); these values are listed in the figure description for each experiment. Mean, standard deviation, and statistics were calculated based on the number of MBs (n).
For screening of the Selleck Chemicals compound library, the same treatment scheme was used, with drugs administered at 100 μM. One MB chip (N=1) was used per compound, with ~40-50 MBs per chip […]; statistics were calculated using the number of MBs (n) and compared to 0 Gy controls.
For both the glutathione and cellular senescence assays, images were quantified in ImageJ.

[3] = phenylbutazone 50 mg/kg, corn oil

For `CCn1cc(C(=O)O)c(=O)c2cc(F)c(N3CCNCC3)nc21` [Enoxacin (Penetrex)], the “reduction in γH2AX foci per nucleus compared to 15 Gy controls” value (“reduction in γH2AX foci per nucleus” below) ([1]; enoxacin 0.3 mg/kg) was 0.5 fold, the “increase in γH2AX foci per nucleus” value ([1]; enoxacin 0.3 mg/kg, comparator not given) was 1.6 fold and the “double hit in the drug screen” value [2] was “double hits”. The “Estimated EC50, Senescence” value [2] was 0.5 µM.

With `CCCCC1C(=O)N(c2ccccc2)N(c2ccccc2)C1=O` [Phenylbutazone] the “reduction in γH2AX foci per nucleus” value [1, 3] was 0.4 fold, the “γH2AX foci per nucleus versus 0 Gy controls” value [1, 3] was “not significantly different from 0 Gy controls” and the “radioprotection in dose response, senescence assay” value [2] was “only partial protection”. The “Estimated EC50, Senescence” value [2] was 0.05 µM.

With Doripenem hydrate the “increase in γH2AX foci per nucleus compared to 0 Gy controls” value ([1]; doripenem hydrate 26 mg/kg) was 2.7 fold, the “reduction of γH2AX foci per nucleus relative to 15 Gy controls” value ([1]; doripenem hydrate 26 mg/kg) was “did not reduce” and the “radioprotection in dose response, senescence assay” value [2] was “variable protection”. The “double hit in the drug screen” value [2] was “double hits” and the “Estimated EC50, Senescence” value [2] was 16.4 µM.

With `NCCCNCCS` [WR-1065] the “reduction in γH2AX foci per nucleus” value ([1]; WR-1065 50 mg/kg) was 0.5 fold, the “γH2AX foci per nucleus versus 0 Gy controls” value ([1]; WR-1065 50 mg/kg) was “No significant differences” and the “Senescence (radioprotection)” value ([2]; 1 mM) was “+”. The “protection against radiation-induced senescence” value ([2]; 1 mM) was “complete radioprotection”, the “Senescence (radioprotection)” value ([2]; 4 mM) was “+” and the “protection against radiation-induced senescence” value ([2]; 4 mM) was “complete radioprotection; also recorded: restored to levels equivalent to 0 Gy”.

Source: US20260345555A1, “Compositions and Methods for Protecting Salivary Glands from Off-Target Radiation Damage” (University of Rochester, priority 2022, published 2026)
